# Data reported in ChEMBL document CHEMBL1201862, “PubChem BioAssay data set” (2004).
# Activity calls are given as the source filed them.
# Columns and labels:
# Fatty acid synthase [1] = target: T1, Fatty acid synthase (Homo sapiens, UniProt P49327); experiment: FAS thioesterase domain inhibitors, dose response, biochemical, endpoint fluorescence intensity, uHTS hits (AID 624327); assay type: functional;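 also: fluorescence from hydrolysis of an O-methyl fluorescein acyl ester substrate by the enzyme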
# Fatty acid synthase [2] = target: T1, Fatty acid synthase; experiment: FAS thioesterase domain inhibitors, dose response, biochemical, kinetic fluorescence intensity (AID 624326); assay type: functional;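 also: rate of fluorescence rise from hydrolysis of a fluorogenic O-methyl fluorescein ester substrate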
# [3] = target: T2, Heat shock factor protein 1 (Mus musculus, UniProt P38532); experiment: HSF1 potentiators in luciferase reporter cells, confirmation, cell-based, NIH3T3, luminescence, dose retest (AID 435004); assay type: functional;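 also: stress induced by proteasome inhibitor MG132 added 30 min after compound; luciferase reporter driven by HSF1 response element in NIH3T3 cells; actives raise luminescence as potentiators of the MG132 stress response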
# T2 sequence (P38532 whole entry): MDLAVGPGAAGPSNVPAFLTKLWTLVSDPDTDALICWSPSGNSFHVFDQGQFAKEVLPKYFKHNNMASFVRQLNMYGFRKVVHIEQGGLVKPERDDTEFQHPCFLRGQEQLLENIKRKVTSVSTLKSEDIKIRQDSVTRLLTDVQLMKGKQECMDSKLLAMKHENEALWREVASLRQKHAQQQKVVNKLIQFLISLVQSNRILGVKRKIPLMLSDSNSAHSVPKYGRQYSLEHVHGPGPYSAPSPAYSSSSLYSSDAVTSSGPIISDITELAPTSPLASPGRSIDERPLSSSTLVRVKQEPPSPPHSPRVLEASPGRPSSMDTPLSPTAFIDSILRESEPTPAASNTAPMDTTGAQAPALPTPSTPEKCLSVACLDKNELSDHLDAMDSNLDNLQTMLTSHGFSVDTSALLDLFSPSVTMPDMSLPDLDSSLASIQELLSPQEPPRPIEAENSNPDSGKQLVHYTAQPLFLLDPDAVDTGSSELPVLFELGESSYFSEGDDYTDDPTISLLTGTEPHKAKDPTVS
# Cytochrome P450 1A2 = target: T3, Cytochrome P450 1A2 (Homo sapiens, UniProt P05177);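 also: PubChem cytochrome P450 panel assay, CYP1A2 panel member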
# T3 sequence (P05177 whole entry): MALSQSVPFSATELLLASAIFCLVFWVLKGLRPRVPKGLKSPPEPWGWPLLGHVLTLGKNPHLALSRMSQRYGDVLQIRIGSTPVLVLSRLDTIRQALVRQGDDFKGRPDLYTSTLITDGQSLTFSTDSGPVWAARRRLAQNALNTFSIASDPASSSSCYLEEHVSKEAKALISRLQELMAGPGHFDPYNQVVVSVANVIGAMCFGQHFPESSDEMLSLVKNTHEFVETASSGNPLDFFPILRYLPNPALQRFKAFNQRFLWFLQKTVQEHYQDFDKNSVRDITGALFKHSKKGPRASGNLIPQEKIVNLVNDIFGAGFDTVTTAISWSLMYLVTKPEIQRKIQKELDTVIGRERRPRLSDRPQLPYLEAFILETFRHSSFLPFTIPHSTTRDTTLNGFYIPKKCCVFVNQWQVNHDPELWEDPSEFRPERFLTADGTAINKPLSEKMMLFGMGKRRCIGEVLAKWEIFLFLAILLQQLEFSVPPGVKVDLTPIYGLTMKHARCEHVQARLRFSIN
# [4] = HEp-2 cell cytotoxicity, dose response, cytotoxicity control for RSV inhibitor project, HTS (AID 2410); assay type: functional; conditions: human respiratory syncytial virus
# [5] = target: T4, Replicative DNA helicase DnaB (Mycobacterium tuberculosis, UniProt P9WMR3); experiment: DnaB intein splicing inhibitors, dose response, biochemical, cell-free fluorescence (AID 449749); assay type: functional
# T4 sequence (P9WMR3 whole entry): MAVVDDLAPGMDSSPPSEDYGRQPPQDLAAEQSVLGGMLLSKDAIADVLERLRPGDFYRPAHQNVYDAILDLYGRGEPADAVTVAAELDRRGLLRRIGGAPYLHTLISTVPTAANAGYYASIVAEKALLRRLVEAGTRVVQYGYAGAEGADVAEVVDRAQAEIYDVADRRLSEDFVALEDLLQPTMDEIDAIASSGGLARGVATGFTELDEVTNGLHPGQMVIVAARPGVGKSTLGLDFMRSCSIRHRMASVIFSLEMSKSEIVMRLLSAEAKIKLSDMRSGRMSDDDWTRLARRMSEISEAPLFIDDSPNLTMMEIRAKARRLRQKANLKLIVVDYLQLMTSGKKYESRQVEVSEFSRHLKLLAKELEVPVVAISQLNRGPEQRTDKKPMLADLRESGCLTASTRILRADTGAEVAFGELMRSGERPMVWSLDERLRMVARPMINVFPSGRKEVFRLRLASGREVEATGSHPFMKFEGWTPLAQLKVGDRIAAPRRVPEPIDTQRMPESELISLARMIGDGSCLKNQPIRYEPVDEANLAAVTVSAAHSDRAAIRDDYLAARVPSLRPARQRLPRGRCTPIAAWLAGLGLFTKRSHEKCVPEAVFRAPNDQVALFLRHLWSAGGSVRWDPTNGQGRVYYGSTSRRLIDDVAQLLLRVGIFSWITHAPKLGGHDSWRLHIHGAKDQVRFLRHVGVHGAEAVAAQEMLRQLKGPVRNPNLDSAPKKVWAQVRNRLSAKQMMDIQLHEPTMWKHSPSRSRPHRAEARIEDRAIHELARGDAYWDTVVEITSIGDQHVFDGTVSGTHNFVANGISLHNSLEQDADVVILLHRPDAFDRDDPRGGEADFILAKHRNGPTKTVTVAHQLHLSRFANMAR
# Protein RecA = target: T5, Protein RecA (Mycobacterium tuberculosis, UniProt P9WHJ3); experiment: Fluorescence Cell-Free Homogeneous Dose Retest to Identify Inhibitors of RecA-Intein Splicing Activity. [Related pubchem assays (depositor defined):AID2097, AID2223, AID489010, AID492950]; assay type: functional
# T5 sequence (P9WHJ3 whole entry): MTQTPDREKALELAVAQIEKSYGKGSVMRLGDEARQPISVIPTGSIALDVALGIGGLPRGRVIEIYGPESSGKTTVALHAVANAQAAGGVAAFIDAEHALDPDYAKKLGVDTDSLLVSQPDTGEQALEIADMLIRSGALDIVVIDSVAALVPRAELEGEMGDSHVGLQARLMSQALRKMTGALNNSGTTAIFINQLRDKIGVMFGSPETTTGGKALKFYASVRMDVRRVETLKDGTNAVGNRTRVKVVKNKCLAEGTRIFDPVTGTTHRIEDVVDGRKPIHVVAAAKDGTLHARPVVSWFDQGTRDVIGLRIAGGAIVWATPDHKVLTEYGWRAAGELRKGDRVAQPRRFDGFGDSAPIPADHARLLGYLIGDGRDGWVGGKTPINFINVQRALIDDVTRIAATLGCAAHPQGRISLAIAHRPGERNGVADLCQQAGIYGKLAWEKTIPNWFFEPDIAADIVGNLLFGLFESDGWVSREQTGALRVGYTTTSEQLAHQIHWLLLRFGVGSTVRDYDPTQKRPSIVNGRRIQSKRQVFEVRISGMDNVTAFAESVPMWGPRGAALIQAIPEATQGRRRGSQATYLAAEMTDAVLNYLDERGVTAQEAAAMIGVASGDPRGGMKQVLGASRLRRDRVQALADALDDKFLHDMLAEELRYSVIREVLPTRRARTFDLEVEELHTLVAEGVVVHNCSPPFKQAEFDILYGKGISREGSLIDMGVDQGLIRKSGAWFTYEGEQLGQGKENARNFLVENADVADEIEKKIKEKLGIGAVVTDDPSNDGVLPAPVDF
# BJ [6] = experiment: cytotoxicity toward BJ-TERT fibroblasts, dose response, cell-based, RAS-independent, luminescence (AID 1933); assay type: functional; conditions: Homo sapiens
# BJ [7] = experiment: cells; assay type: functional, cell-based; conditions: Homo sapiens
# BJ [8] = experiment: cytotoxicity toward BJ-TERT-LT-ST fibroblasts, dose response, cell-based, RAS-independent, luminescence (AID 1935); assay type: functional; conditions: Homo sapiens;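 also: BJ fibroblasts immortalized with TERT plus LT and ST oncogenes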
# [9] = cytotoxicity toward DRD oncogenic fibroblasts, dose response, cell-based, non-viral oncogenic, luminescence (AID 1934); assay type: functional; conditions: Homo sapiens
# T1 sequence (P49327 whole entry, the tested form may be a part): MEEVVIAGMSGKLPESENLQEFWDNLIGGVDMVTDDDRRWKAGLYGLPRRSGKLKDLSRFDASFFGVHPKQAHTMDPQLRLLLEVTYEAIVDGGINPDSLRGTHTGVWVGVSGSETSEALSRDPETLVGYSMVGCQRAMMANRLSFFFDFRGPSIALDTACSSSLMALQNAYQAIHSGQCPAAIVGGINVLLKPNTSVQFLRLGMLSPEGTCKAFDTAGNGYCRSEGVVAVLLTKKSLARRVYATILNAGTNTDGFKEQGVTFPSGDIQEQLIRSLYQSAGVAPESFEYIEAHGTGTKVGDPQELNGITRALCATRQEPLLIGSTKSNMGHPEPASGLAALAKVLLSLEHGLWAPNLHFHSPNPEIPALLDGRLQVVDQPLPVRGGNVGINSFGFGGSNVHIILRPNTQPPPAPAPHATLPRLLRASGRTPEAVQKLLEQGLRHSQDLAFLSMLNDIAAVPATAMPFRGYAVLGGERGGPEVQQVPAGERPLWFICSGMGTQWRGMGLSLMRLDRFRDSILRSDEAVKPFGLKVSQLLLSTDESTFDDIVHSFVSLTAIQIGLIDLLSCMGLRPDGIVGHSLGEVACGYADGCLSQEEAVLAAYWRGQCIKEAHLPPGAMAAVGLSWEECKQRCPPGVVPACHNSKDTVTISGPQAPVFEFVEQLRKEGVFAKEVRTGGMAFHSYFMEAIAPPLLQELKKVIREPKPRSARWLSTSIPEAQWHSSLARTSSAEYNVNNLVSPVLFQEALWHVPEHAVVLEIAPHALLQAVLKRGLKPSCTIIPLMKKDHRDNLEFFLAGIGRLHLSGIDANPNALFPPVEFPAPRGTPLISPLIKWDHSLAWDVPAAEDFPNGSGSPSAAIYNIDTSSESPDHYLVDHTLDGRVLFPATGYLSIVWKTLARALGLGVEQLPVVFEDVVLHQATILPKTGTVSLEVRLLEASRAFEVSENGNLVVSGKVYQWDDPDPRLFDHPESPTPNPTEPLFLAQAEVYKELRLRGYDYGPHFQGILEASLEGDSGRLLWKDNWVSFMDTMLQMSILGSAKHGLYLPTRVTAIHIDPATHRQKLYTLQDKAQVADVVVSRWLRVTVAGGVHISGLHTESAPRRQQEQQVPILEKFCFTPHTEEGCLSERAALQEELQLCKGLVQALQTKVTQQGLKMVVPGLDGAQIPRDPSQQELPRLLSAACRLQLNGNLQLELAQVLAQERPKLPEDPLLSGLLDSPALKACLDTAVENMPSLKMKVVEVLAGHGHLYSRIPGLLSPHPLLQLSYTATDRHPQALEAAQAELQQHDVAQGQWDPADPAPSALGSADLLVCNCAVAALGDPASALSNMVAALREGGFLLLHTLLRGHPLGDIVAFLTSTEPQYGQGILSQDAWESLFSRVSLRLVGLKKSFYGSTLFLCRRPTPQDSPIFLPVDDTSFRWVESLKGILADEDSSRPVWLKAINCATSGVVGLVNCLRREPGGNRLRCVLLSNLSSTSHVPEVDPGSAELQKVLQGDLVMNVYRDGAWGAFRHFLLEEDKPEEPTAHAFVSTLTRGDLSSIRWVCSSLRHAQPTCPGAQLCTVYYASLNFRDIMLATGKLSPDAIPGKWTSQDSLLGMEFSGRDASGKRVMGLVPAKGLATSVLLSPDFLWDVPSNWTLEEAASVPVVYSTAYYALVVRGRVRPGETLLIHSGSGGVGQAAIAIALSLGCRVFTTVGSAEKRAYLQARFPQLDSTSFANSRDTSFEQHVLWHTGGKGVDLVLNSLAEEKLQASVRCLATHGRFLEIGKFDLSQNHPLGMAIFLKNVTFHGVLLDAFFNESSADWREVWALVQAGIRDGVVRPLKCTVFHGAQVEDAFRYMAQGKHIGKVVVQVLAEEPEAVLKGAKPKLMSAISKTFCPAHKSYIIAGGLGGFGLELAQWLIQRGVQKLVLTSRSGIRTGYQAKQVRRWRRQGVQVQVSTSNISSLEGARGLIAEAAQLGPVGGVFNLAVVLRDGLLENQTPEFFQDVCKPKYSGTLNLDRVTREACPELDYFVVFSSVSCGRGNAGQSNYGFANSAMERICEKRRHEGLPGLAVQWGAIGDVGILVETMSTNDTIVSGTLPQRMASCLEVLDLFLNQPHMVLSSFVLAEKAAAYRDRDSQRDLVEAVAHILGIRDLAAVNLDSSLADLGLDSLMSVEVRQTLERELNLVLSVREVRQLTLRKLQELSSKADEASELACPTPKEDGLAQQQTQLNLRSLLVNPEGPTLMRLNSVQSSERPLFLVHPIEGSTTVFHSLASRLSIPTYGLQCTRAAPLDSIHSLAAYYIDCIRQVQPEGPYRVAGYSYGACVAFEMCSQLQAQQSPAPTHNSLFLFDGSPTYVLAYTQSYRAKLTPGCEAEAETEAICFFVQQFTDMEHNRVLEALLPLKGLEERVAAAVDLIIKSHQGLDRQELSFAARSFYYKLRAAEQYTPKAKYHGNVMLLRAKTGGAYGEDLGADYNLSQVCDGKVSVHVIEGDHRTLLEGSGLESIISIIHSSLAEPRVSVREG
Compound,IC50 (Fatty acid synthase [1]),IC50 (Fatty acid synthase [2]),EC50 [3],other results
CC1CCCCN1C(=O)COC(=O)c1cc([N+](=O)[O-])ccc1N1CCOCC1 (stereo unspecified),9.09 µM (active),10.9 µM (active),,
CCn1c(S)nnc1CC(C)C,,,> 260 µM (inactive),AC50 (Cytochrome P450 1A2): 22.4 µM (inconclusive)
CC(=O)Nc1ccc(N/C=C/C(=O)C(C)(C)C)cc1,,,> 260 µM (inactive),
CC1CCCN(S(=O)(=O)c2ccc(NC(=O)Cc3ccc(S(=O)(=O)N4CCOCC4)s3)cc2)C1 (stereo unspecified),7.85 µM (active),9.35 µM (active),,
COC(=O)CCC(=O)COc1ccc(OC)cc1C#N,,,105 µM (active),
O=C(NCCCc1ccccc1)c1cc([N+](=O)[O-])ccc1Cl,1.1 µM (active),3.28 µM (active),,
O=C(c1ccc(Cl)c(S(=O)(=O)NCc2ccco2)c1)N1CCN(c2ccccc2F)CC1,,,> 260 µM (inactive),
COc1ccc(Cl)cc1N(CC(=O)Nc1ccccc1SC)S(C)(=O)=O,,,> 260 µM (inactive),
Cc1cc(C(c2ccc(O)cc2)c2cc(C)c(O)cc2C)c(C)cc1O,,,,CC50 [4]: 20 µM (active); AC50 [5]: 4.7 µM (active); EC50 (Protein RecA): 100 µM (active)
CC(C)CCNC(=O)C1CC(c2cccc([N+](=O)[O-])c2)=NO1 (stereo unspecified),8.3 µM (active),11 µM (active),,
C=CC[n+]1c(-c2ccc(OC)cc2)csc1NNC(=O)Nc1ccccc1,,,> 260 µM (inactive),
COc1ccc(N/C=C(\C=C\C#N)S(=O)(=O)c2ccccc2)cc1,,,> 260 µM (inactive),
O=C(COC(=O)c1cc([N+](=O)[O-])ccc1N1CCOCC1)NC1CCCCC1,0.321 µM (active),0.266 µM (active),,
COc1ccccc1/C=C/C(=O)c1cc(Br)ccc1OC(=O)c1ccco1,,,20.5 µM (active),
N#Cc1ccsc1NC(=O)CCc1ccccc1,,,,EC50 (BJ [6]): 15.7 µM (active); EC50 (BJ [7]): 34.1 µM (active); EC50 (BJ [8]): 18.1 µM (active); EC50 [9]: 19.3 µM (active)
